Experimental findings from a melting point compilation (Tetko et al.; mined from patent text by program, amines drawn as free bases though some values may be those of a salt) are described below.

As a reminder, the melting point is the temperature of the solid-liquid transition.

For `COc1ccc(Cc2c(C(=O)O)n(CC3CC3)c3ccccc23)cc1`, the melting point lay within 162 to 163 °C.

Consider `O=C(O)c1cn(-c2nnc(C(F)(F)F)s2)c2cc(F)c(F)cc2c1=O`, for which the melting point lay in the range of 272 to 276 °C.

`CSc1cnc(Cl)c(Cl)c1` gave a melting point of 66 to 67 °C.

`CC1(C)CC(N(C=O)CCc2ccccc2)CC(C)(C)N1` showed a melting point of 86 °C.

Compound `OC1c2cc(OCc3ccc4ccccc4n3)ccc2OCCC1Oc1ccccc1` (centres undefined) had a melting point of 128 to 129 °C.

As for `Cc1oc(-c2ccccc2)nc1COc1ccc2cc(C/C=C/O)oc2c1`, the melting point lay in the range of 143 to 144 °C.

For `CCS(=O)(=O)NCc1ccc2[nH]cc(CCCN3CCN(c4ncncc4OC)C(C)C3)c2c1` (centres undefined), the melting point lay within 202 to 210 °C.

As to `CCOc1ccc(O)c(F)c1F`, the melting point was 73 °C.

Consider `O=C1Nc2ccccc2C12COc1cc(OC(F)(F)F)ccc12` (centres undefined), for which the melting point fell in the range of 180 to 182 °C.

Compound `CC(C)(C)c1cc(-c2nn(CCN3CCCC3=O)c3ncccc23)cc(C(C)(C)C)c1O` returned a melting point of 148 to 150 °C.

On to `CCOc1cc2c3ccccc3c(C=O)cc2c2ccccc12`, for which the melting point lay within 174 to 176 °C.

In turn, `Cn1c(=O)c(-c2c(Cl)cccc2Cl)cc2cnc(Nc3cccnc3)nc21` displayed a melting point of 247 to 248 °C.

In turn, `O=C1OC2(CC(c3ccc(F)cc3)=NO2)c2ccccc21` (centres undefined) displayed a melting point of 142 to 145 °C.

For `CCCCSc1nnc(-c2ccc([N+](=O)[O-])cc2)s1`, the melting point worked out at 140 °C.

For the compound `Cc1cccc(N2CCN(CCCCCC(=O)N3Cc4ccccc4C3)CC2)c1C#N`, the melting point was 126 °C.

As to `CC(O)c1cc2c(o1)C(=O)c1cccc(O)c1C2=O` (centres undefined), the melting point lay within 148 to 149 °C.

Take `Cc1nc(-c2cc(N)ccc2F)cs1`: the melting point was 73 to 75 °C.

Turning to `Cc1nc2ccc(Nc3nccc(-c4ccc(N5CCNCC5)nc4)n3)cc2[nH]1`, the melting point lay in the range of 245 to 250 °C.

Compound `COc1cccc(-c2nn(Cc3ccccc3)c(N)c2C#N)c1` displayed a melting point of 147 to 149 °C.

As to `COc1cc(C(C)C)c2c(c1)S(=O)(=O)N(COc1cc(C(F)(F)F)nn1-c1ccc(Cl)cn1)C2=O`, the melting point lay within 173 to 174 °C.

In turn, `O=C(CCC1CCNCC1)c1cc2c3c(c1)CCN3C(=O)CC2` yielded a melting point of 114 to 115 °C.

Take `CSc1ccc(C(CC2CCCO2)C(=O)O)cc1` (centres undefined): the melting point was 105 to 107 °C.

`CCOc1nn(-c2ccc(C(F)(F)F)cn2)cc1CCCOc1c(CCC(=O)O)cccc1OC` returned a melting point of 87 to 88 °C.

`O=C(Nc1ccc(-c2ccccc2)s1)c1ccccc1`: the melting point fell in the range of 202 to 203 °C.

Compound `COC(=O)c1ccc(S(C)(=O)=O)c(C2=NOC(C)(OC)C2)c1Cl` (centres undefined) came in with a melting point of 100 to 105 °C.

For `CC(=O)ON=C(c1ccccc1)c1cc(C(C)(C)C)c(O)c(C(C)(C)C)c1`, the melting point lay within 136 to 137 °C.

`C=CC(=O)Cc1ccc(-c2ccc(CC(=O)C=C)cc2)cc1` returned a melting point of 61 to 62 °C.

Compound `CC(C)N(Cc1ccc(Cl)cc1)C(=O)Nc1ccccc1` yielded a melting point of 109 to 111 °C.

`COC(=O)C(=O)c1occc1/C=C/c1ccccc1` showed a melting point of 116 °C.

Turning to `CCOC(=O)CC(NCCCNC(C)(C)C)C(=O)O` (centres undefined), the melting point is 174 to 175 °C.

Consider `Clc1ccc2c(c1)C(c1ccccc1)=NCc1nnc(CNC3CC3)n1-2`, for which the melting point lay in the range of 164 to 169 °C.

Consider `COc1ccc(-c2ccc3c(c2)C=C(C(=O)Nc2ccc(CN(C)C4CCOCC4)cc2)CCS3(=O)=O)cc1OC`, for which the melting point lay in the range of 195 to 197 °C.

The compound `Cc1cc(C(Cc2ccc(CCCc3nc(-c4ccccc4)oc3C)cc2)C(=O)O)on1` (centres undefined) gave a melting point of 133 to 135 °C.

For the compound `O=c1c(CCc2cccnc2)cc2cccnc2n1-c1cccc([N+](=O)[O-])c1`, the melting point was in the range of 221 to 223 °C.

Turning to `Cc1ccc(S(=O)(=O)N2CC2c2ccccc2)cc1` (centres undefined), the melting point lay within 92 to 94 °C.

The compound `CCCCCCCCCCCCCCCCOC(=O)CCCCCCCCCCCCCCC` showed a melting point of 75 °C.

In turn, `CC(C)N1C(=O)c2cnc(Cl)cc2C1=O` displayed a melting point of 94 to 96 °C.

Consider `N#Cc1ccc(NCc2cc3c(cc2O)CCCO3)cc1`, for which the melting point fell in the range of 162 to 164 °C.

In turn, `CCCCNS(=O)(=O)c1cc(C(=O)O)cc(Cl)c1Cl` had a melting point of 160 to 165 °C.

In turn, `CSC(=S)OCc1cn(-c2ccc(N3CCOCC3)c(F)c2)nn1` displayed a melting point of 118 °C.

In turn, `Cc1ccc([N+](=O)[O-])c2c1C(N1C(=O)c3ccccc3C1=O)CCC2=O` (centres undefined) yielded a melting point of 220 to 230 °C.

In turn, `CCCCCCCNCCCCCCCCSc1nc(-c2ccccc2)c(-c2ccccc2)[nH]1` registered a melting point of 87 to 89 °C.

For the compound `Cc1cc(C(=O)Nc2ccn3cc(-c4ccccc4)nc3n2)cc(Cl)n1`, the melting point was in the range of 148 to 151 °C.

The compound `Cc1ccccc1NC(=O)Nc1ccc(-c2c(C(C)C)sc3ncnc(N)c23)cc1` came in with a melting point of 233 to 234 °C.

With `COc1ccc(C)cc1NC(=O)Nc1ccc(N2CCN(C(=O)C3CC4CCC3C4)CC2)cc1` (centres undefined), the melting point lay within 126 to 128 °C.

Consider `COC(=O)c1cc(-n2cnnn2)ccc1OC`, for which the melting point fell in the range of 185 to 187 °C.

With `O=c1cc(C(F)(F)F)[nH]n1-c1cccc([N+](=O)[O-])c1`, the melting point amounted to 166 °C.

`O=C(O)[C@@H]1CCCN1C(=O)C(CS)CS` had a melting point of 138 to 140 °C.

In the case of `CCC1(CC(O)(CBr)c2ccccc2)C(=O)c2ccccc2C1=O` (centres undefined), the melting point fell in the range of 89 to 92 °C.

The compound `O=C1NC(=O)c2c(-c3ccccc3[N+](=O)[O-])ccc(-c3ccccc3)c21` gave a melting point of 224 to 226 °C.

For the compound `O=C(O)C1=Cc2cc(F)c(N3CCC4(CC3)OCCCO4)nc2N(c2ccc(F)cc2F)C1`, the melting point lay in the range of 177 to 178 °C.

As for `Cc1ccc2c(c1)[nH]c(=O)n2CCCN1CCN(C(c2ccccc2)c2ccccc2)CC1`, the melting point came to 178 °C.

For `O=C(CCC(CSc1ccc2ccccc2c1)C(=O)O)OCc1ccccc1` (centres undefined), the melting point fell in the range of 94 to 95 °C.

In turn, `Nc1ccc2nccnc2c1Br` yielded a melting point of 155 to 156 °C.

Take `O=C(O)C(S)c1cc(Cl)ccc1Cl` (centres undefined): the melting point was in the range of 129 to 130 °C.

`C=C(CC)c1cn(-c2c(Cl)cc(C(F)(F)F)cc2Cl)nc1C#N` yielded a melting point of 104 to 105 °C.

Consider `COc1ccc(Nc2nc(Cl)nc(Cl)n2)cc1F`, for which the melting point came out at 134 °C.

In turn, `CC(C)n1nc(-c2cnc(N)nc2-c2ccc(Cl)cc2)ccc1=O` gave a melting point of 195 °C.

Consider `CC(NC(=O)C(C)(C)CCl)c1ccc(Cl)cc1` (centres undefined), for which the melting point lay in the range of 95 to 96 °C.

Take `CN(Cc1cc2c(=O)c(C(=O)NCc3ccc(Cl)cc3)cn(C)c2o1)CC(O)CSc1nnc(N)s1` (centres undefined): the melting point is 200 to 204 °C.

In turn, `O=C1NCC(Cc2ccccc2C(F)(F)F)O1` (centres undefined) returned a melting point of 142 to 143 °C.

In turn, `CC(=C(Cl)Cl)c1ccccc1Nc1ccccc1C` registered a melting point of 49 to 51 °C.

In turn, `O=C(NCCCCCCOCc1ccc(OCc2ccccc2)cc1)c1cc(-c2cccc(C(F)(F)F)c2)c(O)c(-c2cccc(C(F)(F)F)c2)c1` had a melting point of 127 to 130 °C.

For the compound `CCC(C)n1c(=O)ccc2cnc(Nc3ccccc3)nc21` (centres undefined), the melting point lay within 155 to 156 °C.

For `CCn1c(C)nc2cc(S(C)(=O)=O)c(Cl)c(N)c21`, the melting point was in the range of 179 to 186 °C.

Compound `Cc1c(OCc2ccccc2)c(=O)ccn1CCO` gave a melting point of 192 to 193 °C.

`N#C[C@@H](Cc1ccccc1)Oc1c(Br)cc(-c2c3ccccc3c(Br)c3sc4ccccc4c23)cc1Br` yielded a melting point of 160 to 165 °C.

`CCOC(=O)c1nc(C)n2c1CN=C(c1ccccc1F)c1cc(C#N)ccc1-2`: the melting point is 272 to 274 °C.

As for `CSC(=NC(=O)c1ccccc1)Nc1ccccc1`, the melting point was in the range of 78 to 94 °C.

Take `CCCN(Cc1cccc(-c2noc(C)n2)c1)C(=O)Nc1ccc(Br)cc1`: the melting point was in the range of 113 to 114 °C.

For `CC(C)(C)NC(=O)Nc1nc2nc(N)ncc2cc1-c1cccc(Cl)c1Cl`, the melting point lay within 356 to 358 °C.

Compound `C/C(=C\c1ccc(OCCS(C)=O)cc1)c1ccc2c(c1)C(C)(C)CCC2(C)C` (centres undefined) gave a melting point of 134 to 136 °C.

The compound `O=C(O)Cn1cc(Cc2nc3c(F)c(F)cc(F)c3s2)c2cc(-c3ccccc3)ccc21` gave a melting point of 156 to 159 °C.

Regarding `COC(=O)CCCOc1ccccc1I`, the melting point was 66.5 to 67 °C.

On to `CCNc1nc(=S)n(CC)c2nc(C3CC3)[nH]c12`, for which the melting point is 265 °C.

As for `CCOC(=O)Cc1c(C(=O)OCC)c(C)c(C(=O)c2ccc(C)cc2)n1C`, the melting point lay within 108 to 111 °C.

Take `Nc1cccc(C(=O)NCCCn2ccnc2)c1`: the melting point fell in the range of 88 to 90 °C.

As for `Cn1cc(-c2cccc(N3Cc4cc(C(C)(C)C)ccc4C3=O)c2CO)cc(Nc2ccc(C3CNC3)cn2)c1=O`, the melting point was in the range of 185 to 186 °C.

Turning to `CC(=O)OCC1OC(n2cc(C(I)=CI)c(=O)[nH]c2=O)CC1OC(C)=O` (centres undefined), the melting point lay in the range of 76 to 78 °C.

`Clc1ncccc1OCC#CI` yielded a melting point of 164 to 165 °C.

For `Cc1cc(-c2cc(O)c(SCc3ccccc3)c(=O)o2)cc(C)c1O`, the melting point is 174 to 176 °C.

`Cc1cc(Cl)ccc1N=CN(C)SN(C)C=Nc1ccc(Cl)cc1C` had a melting point of 124 to 126 °C.

With `Cc1cc(=O)c(C(=O)Nc2ccccc2)c(C)o1`, the melting point was in the range of 148 to 149 °C.

In turn, `CCOC(=O)c1cnc2c(c(C)nn2-c2ccccn2)c1N` gave a melting point of 147 to 149 °C.

In the case of `CC(Cc1ccc(O)cc1)N(CC(=O)c1ccccc1)Cc1ccc(OCc2ccccc2)c([N+](=O)[O-])c1` (centres undefined), the melting point is 84 to 85 °C.

Compound `CCCc1nn(C)c2c(=O)[nH]c(-c3cc([N+](=O)[O-])ccc3OCC)nc12` had a melting point of 214 to 216 °C.

The compound `CCCNC(=O)C=Cc1ccc2ccn(Cc3ccc(C(=O)NS(=O)(=O)c4ccccc4C)cc3OC)c2c1` showed a melting point of 240 to 242 °C.

For the compound `Nc1ccc(C=CC(=O)N2CCc3c([nH]c4ccccc34)C2c2ccc3c(c2)OCO3)cc1` (centres undefined), the melting point lay in the range of 262 to 265 °C.

Regarding `COc1ccc(-n2ncc(C(=O)O)c2Cl)cc1`, the melting point lay within 241 to 242 °C.
